The source of these data is PMC8213057, “Targeting ALK2: An Open Science Approach to Developing Therapeutics for the Treatment of Diffuse Intrinsic Pontine Glioma” (Journal of Medicinal Chemistry, 2020).

One experiment addresses T1, JAK3 (Homo sapiens, UniProt P52333).
T1 sequence (P52333 1-1124): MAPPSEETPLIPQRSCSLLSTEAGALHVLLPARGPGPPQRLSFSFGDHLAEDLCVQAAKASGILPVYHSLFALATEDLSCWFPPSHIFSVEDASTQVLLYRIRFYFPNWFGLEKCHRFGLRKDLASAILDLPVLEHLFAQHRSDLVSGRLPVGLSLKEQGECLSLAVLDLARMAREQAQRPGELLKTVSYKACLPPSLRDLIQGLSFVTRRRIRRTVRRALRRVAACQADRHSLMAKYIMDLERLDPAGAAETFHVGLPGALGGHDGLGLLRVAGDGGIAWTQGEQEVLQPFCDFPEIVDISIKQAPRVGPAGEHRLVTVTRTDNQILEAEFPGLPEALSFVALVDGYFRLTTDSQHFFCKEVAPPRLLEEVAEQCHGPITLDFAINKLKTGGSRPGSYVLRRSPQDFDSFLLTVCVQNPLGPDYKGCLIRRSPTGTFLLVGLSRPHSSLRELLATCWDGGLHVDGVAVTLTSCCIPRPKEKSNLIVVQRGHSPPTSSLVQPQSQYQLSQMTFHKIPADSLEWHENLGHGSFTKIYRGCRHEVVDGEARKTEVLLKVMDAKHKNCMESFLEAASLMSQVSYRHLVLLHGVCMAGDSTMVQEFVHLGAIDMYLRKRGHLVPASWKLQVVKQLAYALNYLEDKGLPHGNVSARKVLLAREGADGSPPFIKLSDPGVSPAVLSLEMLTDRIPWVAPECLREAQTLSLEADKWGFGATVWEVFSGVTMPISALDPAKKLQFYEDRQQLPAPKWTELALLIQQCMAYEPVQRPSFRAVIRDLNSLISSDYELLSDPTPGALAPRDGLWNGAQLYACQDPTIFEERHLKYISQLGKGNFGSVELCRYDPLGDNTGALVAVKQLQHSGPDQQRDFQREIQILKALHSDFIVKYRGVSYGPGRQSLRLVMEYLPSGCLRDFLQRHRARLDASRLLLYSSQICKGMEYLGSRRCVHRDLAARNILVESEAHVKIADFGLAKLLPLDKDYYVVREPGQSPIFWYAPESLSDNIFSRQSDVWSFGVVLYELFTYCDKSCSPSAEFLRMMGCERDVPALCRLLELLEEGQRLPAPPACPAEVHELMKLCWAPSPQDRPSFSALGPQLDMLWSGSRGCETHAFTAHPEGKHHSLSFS
Put plainly: biochemical. Particulars: read-out: % enzyme activity, 1 μM; Run 1, Run 2.

The target of another experiment is T2, SNRK (Homo sapiens, UniProt Q9NRH2).
T2 sequence (Q9NRH2 1-765): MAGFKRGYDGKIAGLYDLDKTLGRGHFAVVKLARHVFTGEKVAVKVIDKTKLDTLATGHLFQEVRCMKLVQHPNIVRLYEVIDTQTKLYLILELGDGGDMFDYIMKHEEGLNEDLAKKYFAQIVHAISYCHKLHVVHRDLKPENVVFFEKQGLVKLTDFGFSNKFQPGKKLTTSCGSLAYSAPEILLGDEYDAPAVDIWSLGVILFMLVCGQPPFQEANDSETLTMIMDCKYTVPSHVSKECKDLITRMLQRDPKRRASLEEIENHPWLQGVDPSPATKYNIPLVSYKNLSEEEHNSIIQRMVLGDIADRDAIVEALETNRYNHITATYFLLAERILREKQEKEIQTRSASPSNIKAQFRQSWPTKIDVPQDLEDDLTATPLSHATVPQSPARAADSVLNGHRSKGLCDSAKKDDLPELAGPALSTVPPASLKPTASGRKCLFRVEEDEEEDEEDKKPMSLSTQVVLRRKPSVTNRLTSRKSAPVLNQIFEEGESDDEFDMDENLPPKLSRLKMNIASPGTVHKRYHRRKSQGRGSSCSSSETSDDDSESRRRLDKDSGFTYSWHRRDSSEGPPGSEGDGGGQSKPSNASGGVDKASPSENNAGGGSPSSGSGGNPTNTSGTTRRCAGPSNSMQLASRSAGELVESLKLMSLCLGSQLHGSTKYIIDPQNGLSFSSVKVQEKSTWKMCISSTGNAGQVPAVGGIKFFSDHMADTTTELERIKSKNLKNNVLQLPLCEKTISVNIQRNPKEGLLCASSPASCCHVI
Nature of the experiment: biochemical. Particulars: read-out: % enzyme activity, 1 μM; Run 1, Run 2.

A further experiment concerns the target LIMK1 (Homo sapiens, UniProt P53667). Particulars: 1 μM; Run 1, Run 2.
The target in a further experiment is CAMK1d (Homo sapiens, UniProt Q8IU85). Nature of the experiment: biochemical. Particulars: read-out: % enzyme activity, 1 μM; Run 1, Run 2.
Sequence of CAMK1d (Q8IU85 whole entry): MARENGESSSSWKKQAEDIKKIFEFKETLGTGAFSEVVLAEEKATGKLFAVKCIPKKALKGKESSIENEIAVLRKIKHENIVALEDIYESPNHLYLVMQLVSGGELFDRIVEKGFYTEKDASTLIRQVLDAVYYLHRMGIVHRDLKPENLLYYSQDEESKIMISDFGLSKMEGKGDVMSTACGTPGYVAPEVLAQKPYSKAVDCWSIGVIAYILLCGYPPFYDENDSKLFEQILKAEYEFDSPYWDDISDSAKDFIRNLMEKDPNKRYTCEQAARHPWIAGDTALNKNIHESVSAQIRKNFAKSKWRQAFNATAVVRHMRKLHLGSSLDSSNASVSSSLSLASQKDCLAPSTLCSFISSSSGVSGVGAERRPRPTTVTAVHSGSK
Another experiment concerns the target PKN3/PRK3 (Homo sapiens, UniProt Q6P5Z2). Nature of the experiment: biochemical. Particulars: read-out: % enzyme activity, 1 μM; Run 1, Run 2.
For the next experiment, the target named is MARK3 (Homo sapiens, UniProt P27448). Particulars: 1 μM; Run 1, Run 2.
Sequence of MARK3 (P27448 whole entry): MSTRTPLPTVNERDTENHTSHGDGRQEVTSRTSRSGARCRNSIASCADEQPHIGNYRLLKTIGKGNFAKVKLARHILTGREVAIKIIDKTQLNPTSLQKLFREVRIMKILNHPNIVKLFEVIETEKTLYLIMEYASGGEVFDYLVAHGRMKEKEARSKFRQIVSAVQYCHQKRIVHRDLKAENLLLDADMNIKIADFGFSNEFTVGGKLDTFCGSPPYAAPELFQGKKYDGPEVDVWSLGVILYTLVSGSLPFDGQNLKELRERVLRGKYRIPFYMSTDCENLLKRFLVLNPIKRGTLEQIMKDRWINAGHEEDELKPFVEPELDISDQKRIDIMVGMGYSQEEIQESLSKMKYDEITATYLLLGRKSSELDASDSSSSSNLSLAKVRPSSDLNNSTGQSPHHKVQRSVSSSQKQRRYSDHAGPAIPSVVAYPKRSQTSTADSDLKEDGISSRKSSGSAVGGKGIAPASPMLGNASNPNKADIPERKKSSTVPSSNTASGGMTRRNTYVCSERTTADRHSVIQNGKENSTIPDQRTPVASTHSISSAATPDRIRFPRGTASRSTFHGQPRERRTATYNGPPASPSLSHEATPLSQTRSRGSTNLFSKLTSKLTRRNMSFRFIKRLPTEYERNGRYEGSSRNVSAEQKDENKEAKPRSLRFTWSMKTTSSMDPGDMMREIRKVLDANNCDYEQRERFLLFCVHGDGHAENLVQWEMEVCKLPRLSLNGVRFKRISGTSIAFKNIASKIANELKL

Sequence of PKN3/PRK3 (Q6P5Z2 whole entry): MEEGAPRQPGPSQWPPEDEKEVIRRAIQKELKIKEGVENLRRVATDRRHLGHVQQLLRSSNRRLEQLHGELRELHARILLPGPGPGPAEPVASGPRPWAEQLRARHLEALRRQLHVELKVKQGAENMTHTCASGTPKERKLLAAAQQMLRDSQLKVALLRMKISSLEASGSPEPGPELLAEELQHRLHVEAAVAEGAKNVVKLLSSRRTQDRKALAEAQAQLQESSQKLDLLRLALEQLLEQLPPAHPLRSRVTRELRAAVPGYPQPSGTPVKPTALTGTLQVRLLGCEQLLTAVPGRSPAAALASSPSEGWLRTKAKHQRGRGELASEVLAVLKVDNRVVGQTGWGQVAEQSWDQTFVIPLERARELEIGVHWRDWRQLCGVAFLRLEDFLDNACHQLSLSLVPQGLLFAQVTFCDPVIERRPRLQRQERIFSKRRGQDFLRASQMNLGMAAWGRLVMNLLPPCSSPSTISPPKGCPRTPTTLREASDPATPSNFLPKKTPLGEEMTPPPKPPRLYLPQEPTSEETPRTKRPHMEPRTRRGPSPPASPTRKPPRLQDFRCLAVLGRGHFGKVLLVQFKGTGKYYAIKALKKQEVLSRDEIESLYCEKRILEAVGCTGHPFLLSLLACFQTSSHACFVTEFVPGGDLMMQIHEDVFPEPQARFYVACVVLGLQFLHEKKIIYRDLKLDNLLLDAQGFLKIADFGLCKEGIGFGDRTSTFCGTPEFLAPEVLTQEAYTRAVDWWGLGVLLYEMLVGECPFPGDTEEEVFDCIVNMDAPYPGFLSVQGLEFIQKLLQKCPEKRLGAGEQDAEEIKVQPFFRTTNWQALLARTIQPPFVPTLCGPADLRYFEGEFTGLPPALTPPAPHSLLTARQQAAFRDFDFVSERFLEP
Sequence of LIMK1 (P53667 whole entry): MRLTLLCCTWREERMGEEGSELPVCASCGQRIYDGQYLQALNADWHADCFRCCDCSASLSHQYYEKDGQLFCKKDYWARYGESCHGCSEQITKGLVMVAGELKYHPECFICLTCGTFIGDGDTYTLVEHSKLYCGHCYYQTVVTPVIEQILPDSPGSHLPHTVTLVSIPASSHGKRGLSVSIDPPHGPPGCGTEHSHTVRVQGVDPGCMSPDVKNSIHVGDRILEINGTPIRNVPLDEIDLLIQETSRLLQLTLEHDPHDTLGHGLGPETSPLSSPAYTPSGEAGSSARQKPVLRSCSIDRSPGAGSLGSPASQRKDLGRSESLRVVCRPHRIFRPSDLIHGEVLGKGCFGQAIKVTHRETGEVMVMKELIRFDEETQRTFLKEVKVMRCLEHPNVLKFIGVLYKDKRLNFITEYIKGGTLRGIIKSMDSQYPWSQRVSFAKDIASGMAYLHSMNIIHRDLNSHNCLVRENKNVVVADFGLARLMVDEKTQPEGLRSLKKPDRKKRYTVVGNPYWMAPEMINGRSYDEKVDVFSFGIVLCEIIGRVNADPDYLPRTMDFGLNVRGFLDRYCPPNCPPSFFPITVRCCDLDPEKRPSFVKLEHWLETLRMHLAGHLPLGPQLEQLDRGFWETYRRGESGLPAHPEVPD

For the compound `COc1cc(-c2cncc(-c3ccc(N4CCN(C)CC4)cc3)c2C)cc(F)c1C(N)=O` [Compound 26a, 2-Fluoro-6-methoxy-4-(4-methyl-5-(4-(4-methylpiperazin-1-yl)phenyl)pyridin-3-yl)benzamide], the remaining activity at 1 µM was found to be 106% on JAK3, 105% on SNRK, 98.5% at CAMK1d and 95% at PKN3/PRK3. Also, the “% enzyme activity” value on LIMK1 was 64.18%; at MARK3, 82.91%.
In the case of `COc1cc(-c2cncc(-c3ccc(N4C[C@@H](C)N(C)[C@@H](C)C4)cc3)c2C)cc(F)c1C(N)=O` [Compound 26c, 2-Fluoro-6-methoxy-4-(4-methyl-5-(4-((3R,5S)-3,4,5-trimethylpiperazin-1-yl)phenyl)pyridin-3-yl)benzamide], the remaining activity at 1 µM came to 101% on JAK3, 100% at SNRK, 99.9% on CAMK1d and 98.4% on PKN3/PRK3. Further, the results for the “% enzyme activity” value on LIMK1 and at MARK3 were 72.63% and 93.66%, respectively.
